Results as given in patent US9168259B2 (GRÜNENTHAL GMBH, priority 2010, dated 2015).

Biological target: T1, KCNQ2/3 channels (Homo sapiens, UniProt O43525+O43526)
T1 construct: expressed in transfected cells
Assay: Fluorescence assay using a voltage sensitive dye (fluorimetry)
Format: cell-based
Settings: CHO-K1 cells expressing KCNQ2/3; for Emax: CHO-K1, plateau effect relative to saturated retigabine (50 μM) = 100%, negative values = antagonistic, read-out: Fluorimetry % efficacy (retigabine = 100%); for EC50: IC50 where % efficacy is negative, read-out: Fluorimetry EC50/IC50

T1 sequence (O43526 whole entry): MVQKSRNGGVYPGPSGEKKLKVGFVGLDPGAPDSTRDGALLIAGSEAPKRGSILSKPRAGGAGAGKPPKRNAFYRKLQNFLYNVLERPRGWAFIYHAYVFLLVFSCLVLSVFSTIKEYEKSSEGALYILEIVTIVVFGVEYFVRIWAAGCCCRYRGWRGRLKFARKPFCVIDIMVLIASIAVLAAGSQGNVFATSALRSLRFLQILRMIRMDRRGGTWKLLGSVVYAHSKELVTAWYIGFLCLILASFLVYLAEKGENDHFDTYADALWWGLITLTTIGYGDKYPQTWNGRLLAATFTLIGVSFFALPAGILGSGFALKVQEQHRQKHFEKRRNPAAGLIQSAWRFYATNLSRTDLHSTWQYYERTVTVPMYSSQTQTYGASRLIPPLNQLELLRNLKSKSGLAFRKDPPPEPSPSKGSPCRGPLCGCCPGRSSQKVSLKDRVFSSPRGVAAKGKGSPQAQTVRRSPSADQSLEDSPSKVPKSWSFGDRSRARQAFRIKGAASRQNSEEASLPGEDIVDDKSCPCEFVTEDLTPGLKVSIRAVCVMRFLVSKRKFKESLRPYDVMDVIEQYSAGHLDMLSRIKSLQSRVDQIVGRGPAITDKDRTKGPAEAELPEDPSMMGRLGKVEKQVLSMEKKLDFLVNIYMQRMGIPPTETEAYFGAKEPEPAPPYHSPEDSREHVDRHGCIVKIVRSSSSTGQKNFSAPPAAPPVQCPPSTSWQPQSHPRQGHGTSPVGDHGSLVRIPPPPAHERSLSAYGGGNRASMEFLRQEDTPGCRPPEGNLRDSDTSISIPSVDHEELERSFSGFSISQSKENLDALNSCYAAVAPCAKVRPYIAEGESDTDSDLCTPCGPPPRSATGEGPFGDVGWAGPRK
T1 sequence (O43525 whole entry): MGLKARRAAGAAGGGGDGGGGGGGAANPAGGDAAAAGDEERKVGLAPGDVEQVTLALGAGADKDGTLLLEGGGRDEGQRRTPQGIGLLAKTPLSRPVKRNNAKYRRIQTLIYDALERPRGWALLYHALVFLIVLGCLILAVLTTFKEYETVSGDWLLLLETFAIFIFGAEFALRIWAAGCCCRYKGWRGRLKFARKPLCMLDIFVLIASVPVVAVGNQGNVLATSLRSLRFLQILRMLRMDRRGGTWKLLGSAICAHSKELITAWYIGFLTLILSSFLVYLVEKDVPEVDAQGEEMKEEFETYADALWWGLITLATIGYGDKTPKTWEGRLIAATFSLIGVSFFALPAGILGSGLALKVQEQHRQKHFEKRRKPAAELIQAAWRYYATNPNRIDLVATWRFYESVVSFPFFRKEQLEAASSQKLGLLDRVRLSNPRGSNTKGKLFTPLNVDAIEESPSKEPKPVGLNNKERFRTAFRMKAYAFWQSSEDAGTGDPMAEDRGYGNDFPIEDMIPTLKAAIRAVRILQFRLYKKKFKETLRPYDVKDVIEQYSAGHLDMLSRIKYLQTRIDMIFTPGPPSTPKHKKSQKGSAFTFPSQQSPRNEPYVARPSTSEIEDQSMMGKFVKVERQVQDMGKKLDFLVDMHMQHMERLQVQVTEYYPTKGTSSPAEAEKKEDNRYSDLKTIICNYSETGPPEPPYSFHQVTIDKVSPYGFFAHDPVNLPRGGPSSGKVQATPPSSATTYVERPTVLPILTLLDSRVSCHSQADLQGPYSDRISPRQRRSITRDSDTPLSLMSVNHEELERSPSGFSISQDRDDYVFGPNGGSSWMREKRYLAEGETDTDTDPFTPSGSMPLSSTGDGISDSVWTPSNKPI

SMILES | Emax | EC50
CCSc1nc(N2CCCCCC2)cc(C)c1C(=O)NCc1cccc(F)c1 [Example 136, 6-(Azepan-1-yl)-2-ethylsulfanyl-N-[(3-fluorophenyl)-methyl]-4-methyl-pyridine-3-carboxylic acid amide] | 171% | 108 nM
CCN(C)c1nc(N2CCOCC2)cc(C)c1C(=O)NCc1ccc(Cl)cc1 [Example 191, N-[(4-Chlorophenyl)-methyl]-2-(ethyl-methyl-amino)-4-methyl-6-morpholin-4-yl-pyridine-3-carboxylic acid amide] | 214% | 265 nM
CCSc1nc(N(CCOC)CCOC)cc(C)c1C(=O)NCc1cccc(F)c1 [Example 126, 6-[Bis(2-methoxy-ethyl)-amino]-2-ethylsulfanyl-N-[(3-fluorophenyl)-methyl]-4-methyl-pyridine-3-carboxylic acid amide] | 145% | 2090 nM
CCSc1nc(N2CCOCC2)cc(C)c1C(=O)NCCC(C)C [Example 42, 2-Ethylsulfanyl-4-methyl-N-(3-methyl-butyl)-6-morpholin-4-yl-pyridine-3-carboxylic acid amide] | 169% | 571 nM
CCN(C)c1nc(N2CCOCC2)cc(C)c1C(=O)NCCCC(F)(F)F [Example 190, 2-(Ethyl-methyl-amino)-4-methyl-6-morpholin-4-yl-N-(4,4,4-trifluoro-butyl)-pyridine-3-carboxylic acid amide] | 207% | 2500 nM
CCCCSc1nc(N2CCOCC2)cc(C)c1C(=O)NCc1cccc(F)c1 [Example 57, 2-(Butylsulfanyl)-N-[(3-fluorophenyl)-methyl]-4-methyl-6-morpholin-4-yl-pyridine-3-carboxylic acid amide] | 169% | 47 nM
CCSc1nc(N2CCC(C)CC2)cc(C)c1C(=O)NCc1cccc(F)c1 [Example 70, 2-Ethylsulfanyl-N-[(3-fluorophenyl)-methyl]-4-methyl-6-(4-methyl-piperidin-1-yl)-pyridine-3-carboxylic acid amide] | 175% | 163 nM
CCSc1nc(N2CCOCC2)cc(C)c1C(=O)NCCC1CCCCC1 [Example 106, N-(2-Cyclohexyl-ethyl)-2-ethylsulfanyl-4-methyl-6-morpholin-4-yl-pyridine-3-carboxylic acid amide] | 160% | 172 nM
CCN(C)c1nc(N2CCOCC2)cc(C)c1C(=O)NCc1ccc(C(F)(F)F)cc1 [Example 188, 2-(Ethyl-methyl-amino)-4-methyl-6-morpholin-4-yl-N-[[4-(trifluoromethyl)-phenyl]-methyl]pyridine-3-carboxylic acid amide] | 154% | 343 nM
CCSc1nc(N2CCOCC2)cc(C)c1C(=O)NCc1cccc(Cl)c1 [Example 125, N-[(3-Chlorophenyl)-methyl]-2-ethylsulfanyl-4-methyl-6-morpholin-4-yl-pyridine-3-carboxylic acid amide] | 152% | 87 nM
CCSc1nc(N2CCOCC2)cc(C)c1C(=O)NCc1cccc(F)c1F [Example 100, N-[(2,3-Difluoro-phenyl)-methyl]-2-ethylsulfanyl-4-methyl-6-morpholin-4-yl-pyridine-3-carboxylic acid amide] | 98% | 118 nM
CCSc1nc(N2CCCCC2)cc(C)c1C(=O)NCc1cccc(F)c1 [Example 32, 2-Ethylsulfanyl-N-[(3-fluorophenyl)-methyl]-4-methyl-6-piperidin-1-yl-pyridine-3-carboxylic acid amide] | 166% | 132 nM
CCSc1nc(N2CCO[C@@H](C)C2)cc(C)c1C(=O)NCc1cccc(F)c1 [Example 138, 2-Ethylsulfanyl-N-[(3-fluorophenyl)-methyl]-4-methyl-6-[(2S)-2-methyl-morpholin-4-yl]-pyridine-3-carboxylic acid amide] | 125% | 170 nM
CCSc1nc(N2CC(OC)C2)cc(C)c1C(=O)NCc1cccc(F)c1 [Example 6, 2-Ethylsulfanyl-N-[(3-fluorophenyl)-methyl]-6-(3-methoxy-azetidin-1-yl)-4-methyl-pyridine-3-carboxylic acid amide] | 140% | 3870 nM
CCSc1nc(N2CCOCC2)cc(C)c1C(=O)NCc1ccc(COC)cc1 [Example 146, 2-Ethylsulfanyl-N-[[4-(methoxymethyl)-phenyl]-methyl]-4-methyl-6-morpholin-4-yl-pyridine-3-carboxylic acid amide] | 159% | 2490 nM
CCSc1nc(N2CCOCC2)cc(C)c1C(=O)NCc1ccc(C)cc1 [Example 161, 2-Ethylsulfanyl-4-methyl-6-morpholin-4-yl-N-(p-tolyl-methyl)-pyridine-3-carboxylic acid amide] | 143% | 366 nM
CCSc1nc(N2CCN(C(C)=O)CC2)cc(C)c1C(=O)NCc1cccc(F)c1 [Example 144, 6-(4-Acetyl-piperazin-1-yl)-2-ethylsulfanyl-N-[(3-fluorophenyl)-methyl]-4-methyl-pyridine-3-carboxylic acid amide] | 59% | –
CCSc1nc(N(C)C)cc(C)c1C(=O)NCc1cccc(F)c1 [Example 33, 6-Dimethylamino-2-ethylsulfanyl-N-[(3-fluorophenyl)-methyl]-4-methyl-pyridine-3-carboxylic acid amide] | 110% | 639 nM
CCSc1nc(N2CCC(=O)CC2)cc(C)c1C(=O)NCc1cccc(F)c1 [Example 16, 2-Ethylsulfanyl-N-[(3-fluorophenyl)-methyl]-4-methyl-6-(4-oxo-piperidin-1-yl)-pyridine-3-carboxylic acid amide] | 149% | 2520 nM

Next, values leading:

Emax | EC50 | SMILES
207% | 402 nM | Cc1cc(N2CCOCC2)nc(N(C)C)c1C(=O)NCc1ccc(F)c(F)c1 [Example 206, N-[(3,4-Difluoro-phenyl)-methyl]-2-dimethylamino-4-methyl-6-morpholin-4-yl-pyridine-3-carboxylic acid amide]
163% | 59 nM | CCCc1nc(N2CCOCC2)cc(C)c1C(=O)NCc1ccc(Cl)cc1 [Example 326, N-[(4-Chlorophenyl)-methyl]-4-methyl-6-morpholin-4-yl-2-propyl-pyridine-3-carboxylic acid amide]
163% | 137 nM | CCOc1nc(N2CCOC[C@H]2C)cc(C)c1C(=O)NCc1ccc(Cl)cc1 [Example 273, N-[(4-Chlorophenyl)-methyl]-2-ethoxy-4-methyl-6-[(3R)-3-methyl-morpholin-4-yl]-pyridine-3-carboxylic acid amide]
81% | 348 nM | CCSc1nc(N2CCCc3ccccc32)cc(C)c1C(=O)NCc1cccc(F)c1 [Example 304, 2-Ethylsulfanyl-N-[(3-fluorophenyl)-methyl]-4-methyl-6-(1,2,3,4-tetrahydro-quinolin-1-yl)-pyridine-3-carboxylic acid amide]
32% | – | CCSc1nc(N2CCO[C@@H](CO)C2)cc(C)c1C(=O)NCc1cccc(F)c1 [Example 292, 2-Ethylsulfanyl-N-[(3-fluorophenyl)-methyl]-6-[(2R)-2-(hydroxymethyl)-morpholin-4-yl]-4-methyl-pyridine-3-carboxylic acid amide]
223% | 313 nM | CCSc1nc(N2CCOC[C@H]2COC)cc(C)c1C(=O)NCc1ccc(F)cc1 [Example 248, 2-Ethylsulfanyl-N-[(4-fluorophenyl)-methyl]-6-[(3R)-3-(methoxymethyl)-morpholin-4-yl]-4-methyl-pyridine-3-carboxylic acid amide]
166% | 109 nM | Cc1cc(N2CCOCC2)nc(C2CC2)c1C(=O)NCc1ccc(F)c(F)c1 [Example 332, 2-Cyclopropyl-N-[(3,4-difluoro-phenyl)-methyl]-4-methyl-6-morpholin-4-yl-pyridine-3-carboxylic acid amide]
– | 1990 nM | Cc1cc(N2CCOCC2)nc(C(C)C)c1C(=O)NCCC(O)C(F)(F)F (racemic) [Example X6, 2-Isopropyl-4-methyl-6-morpholin-4-yl-N-(4,4,4-trifluoro-3-hydroxy-butyl)-pyridine-3-carboxylic acid amide]
223% | 187 nM | CCSc1nc(N(C)C)cc(C)c1C(=O)NCCCC(C)(C)C [Example 210, 6-Dimethylamino-N-(4,4-dimethyl-pentyl)-2-ethylsulfanyl-4-methyl-pyridine-3-carboxylic acid amide]
194% | 272 nM | CCSc1nc(N(C)C2CCOC2)cc(C)c1C(=O)NCCCC(C)(C)C (stereo not drawn) [Example 218, N-(4,4-Dimethyl-pentyl)-2-ethylsulfanyl-4-methyl-6-(methyl-tetrahydro-furan-3-yl-amino)-pyridine-3-carboxylic acid amide]
235% | 196 nM | CCSc1nc(N2CCOC[C@H]2C)cc(C)c1C(=O)NCCCC(F)(F)F [Example 235, 2-Ethylsulfanyl-4-methyl-6-[(3R)-3-methyl-morpholin-4-yl]-N-(4,4,4-trifluoro-butyl)-pyridine-3-carboxylic acid amide]
172% | 430 nM | CCC(C)(C)c1nc(N2CCOCC2)cc(C)c1C(=O)NCCCC(C)(C)C [Example 279, N-(4,4-Dimethyl-pentyl)-2-(1,1-dimethyl-propyl)-4-methyl-6-morpholin-4-yl-pyridine-3-carboxylic acid amide]
236% | 46 nM | CSc1nc(N2CCOC[C@H]2C)cc(C)c1C(=O)NCCCC(C)(C)C [Example 192, N-(4,4-Dimethyl-pentyl)-4-methyl-6-[(3R)-3-methyl-morpholin-4-yl]-2-methylsulfanyl-pyridine-3-carboxylic acid amide]
174% | 394 nM | CCSc1nc(N2CC(C)OCC2C)cc(C)c1C(=O)NCc1cccc(F)c1 (stereo not drawn) [Example 240, 6-(2,5-Dimethyl-morpholin-4-yl)-2-ethylsulfanyl-N-[(3-fluorophenyl)-methyl]-4-methyl-pyridine-3-carboxylic acid amide]
